{
  "source": "patent US20260242418A1",
  "about": "“CYCLIC PEPTIDES WITH ANTIBACTERIAL ACTIVITY AGAINST MULTIDRUG RESISTANT (MDR) PATHOGENS” (priority 2022, published 2026)",
  "key": {"Acinetobacter baumannii": {"tested_on": "Acinetobacter baumannii", "type": "cell-based", "text": "(§1) Minimum Inhibitory Concentration (MIC) of a peptide of SEQ D NO: 4 (abbreviated PLP-3) and colistin against a collection of clinically relevant and commercially available bacterial strains was obtained via broth microdilution. The protocol for antimicrobial activity determination, detailed below, consisted in a modification of Clinical & Laboratory Standards Institute (CLSI) Guidelines.\n(§2) MIC is the value defined as the lowest concentration of an antimicrobial, in these tests either PLP-3 or colistin, which inhibits the macroscopic growth of a bacterial strain after 18-22 h incubation at 37° C. The results from these assays are obtained via visual identification of the bacterial bottom at the end of the wells of the testing plate. Since the wells contain decreasing concentrations of the compounds, the final result is indicated as a concentration, MIC, expressed in μg/mL of the agent (in this case PLP-3 or colistin).\n(§3) Bacterial strains were streaked in Columbia Agar plates (Columbia Agar with 5% Sheep Blood 90 mm Stacker plates, BD) and incubated overnight at 37° C. Polypropylene round bottomed 96-well plates were filled with 50 μL/well of Mueller-Hinton Broth (MHB, CM0405, 500 g, ThermoFisher Scientific™ Oxoid™) and 50 μL of either colistin or PLP-3 (at 4× the chosen initial concentration of the test) were added to the first well of each row of the plate followed by serial dilutions up until the 10th column of the plate.\n(§4) Finally, strain inoculums were prepared by diluting 1:100 0.5 McFarland solutions in MHB. Plates were then inoculated with 50 μL of the inoculums and covered with film before 18 to 22 h incubation at 37 C.\n(§5) Three biological and three technical replicates were performed per strain.\n(§6) Broth microdilution testing of 15 strains of each species provided MIC50 and […] values (Table 4). Strains were either from clinical origin, relevant to current clinical situation, or commercially available strains belonging to the American Type Culture Collection (ATCC), namely: A. baumannii 17978 and 19606, K. pneumoniae 13883 and P. aeruginosa 27853.\n(§7) This panel represents an example of relevant MDR, colistin resistant and colistin susceptible strains from which to compare results. The minimum inhibitory concentration (MIC) is the lowest concentration of a chemical, usually a drug, which prevents visible growth of a bacterium or bacteria. MIC50 represents the antimicrobial concentration value that inhibits the growth of 50% of the bacterial strains and […] of each species from the tested panel of strains. Being colistin both a peptide and a last-resource antibiotic, it was included in these assays for comparison against a commercially available antibiotic."}, "Klebsiella pneumoniae": {"tested_on": "Klebsiella pneumoniae", "type": "cell-based", "text": "as §1, §2, §3, §4, §5, §6, §7"}, "in vitro": {"assay": "in vitro", "type": "cell-based, human", "details": "human, haemolysis % relative to 1% TX-100 at 64 ug/mL PLP-3", "experimental": "(§8) A 50% haematocrit solution (1:1 PBS 1×, P5493, 1 L, Sigma) was obtained from a commercially available human blood sample by performing 3 consecutive washes with PBS 1× and centrifuging at 2600 rpm for 10 minutes between washes. A final 4% erythrocyte solution was prepared with PBS 1× and chilled on ice until used.\n(§9) Colistin and SEQ ID NO: 4 (PLP-3) stocks were prepared at 256 μg/mL in MHB and left at 4 C until used.\n(§10) 96-well, round bottom plates were filled with 50 μL PBS 1× but for the haemolysis controls, which were left empty. 50 μL of each antimicrobial were added to the first column of each plate and serial dilution was performed. Then 50 μL of 4% erythrocyte solution were added to all wells of the plate and gently resuspended. Positive control consisted in PBS 1× and erythrocytes while haemolysis control was settled at 1% Triton™ X-100 (TX-100, 9002-93-1, 100 mL, Sigma) and erythrocytes.\n(§11) Plates were incubated for 4 h at 37° C. and then centrifuged at 1500 rpm 5 min. […] An EPOCH™ spectrophotometer was used to read the plates at 450 nm.\n(§12) Haemolysis assays of human erythrocytes were done using 1% TX-100 as a control for total haemolysis and absorbance values of PLP-3 were represented in relation to total haemolysis (TX-100 values)."}, "human erythrocytes": {"tested_on": "human erythrocytes", "assay": "in vitro", "type": "cell-based", "details": "red cells of human", "experimental": "as §8, §9, §10, §11, §12"}, "P. aeruginosa ATCC 27853": {"tested_on": "P. aeruginosa ATCC 27853", "assay": "Time-kill curves", "type": "cell-based, Pseudomonas aeruginosa", "experimental": "Time-kill curves (TKC) determine the in vitro antimicrobial activity of a compound, monitoring the bacterial growth over a certain period of time.\nThis assay was performed for two Acinetobacter baumannii strains (a clinical strain and ATCC 19606 strain) and one Pseudomonas aeruginosa ATCC 27853 strain, monitoring its growth during 24 hours at different PLP-3 (SEQ ID NO: 4) concentrations: MIC, 2×MIC, 4×MIC, 8×MIC. Moreover, in each TKC assay a negative and a positive growth control was stablished.\nIn different 13MI tubes, a certain concentration of PLP-3 peptide, Mueller-Hinton Broth (MHB, 1214, Condalab) and a fixed inoculum concentration were added. The final inoculum concentration in each tube was […]. Tubes were incubated at 37° C. at 180 rpm during 24 hours. Aliquots of the liquid culture were taken at different times: 0 h, 10 minutes, 30 minutes, 1 h, 2 h, 4 h, 8 h and 24 h. For each taken aliquot, serial dilutions with Phosphate Saline Buffer 1× (PBS 1×) were made and streaked in Luria-Bertani Agar (LB, 1083, Condalab). LB Agar plates were incubated at 37° C. during 18-22 hours. Grown colonies in LB Agar were counted in order to quantify the inoculum in each time period.\nThree biological replicates were performed for each strain, and the mean and standard deviation was determined each time."}, "[1]": {"details": "panel of 15 A. baumannii strains"}, "[2]": {"details": "panel of 15 K. pneumoniae strains"}},
  "data": [
    {"smiles": "CC(C)C[C@@H]1NC(=O)[C@H](CCCNC(=N)N)NC(=O)[C@H](CCCNC(=N)N)NC(=O)[C@H](CCCNC(=N)N)NC(=O)[C@H]2CCCN2C(=O)[C@H](CCCNC(=N)N)NC(=O)[C@H](CCCNC(=N)N)NC(=O)[C@H](C(C)C)NC(=O)[C@@H]2CSSC[C@H](NC1=O)C(=O)N[C@@H](Cc1ccccc1)C(=O)N[C@@H](C(C)C)C(=O)N[C@@H](CCCNC(=N)N)C(=O)N1CCC[C@@H]1C(=O)N[C@@H](CCCCN)C(=O)N[C@@H](Cc1ccccc1)C(=O)N[C@@H](C(C)C)C(=O)N[C@@H](C(C)C)C(=O)N2", "note": "[PLP-3, cyclo[RRRLCFVRPKFVVCVRRP]]", "values": [
      {"measurement": "Range of MICs", "setting": "Acinetobacter baumannii", "value": "1 to 2", "unit": "µg/mL"},
      {"measurement": "MIC50", "setting": "Acinetobacter baumannii; [1]", "value": 1, "unit": "µg/mL"},
      {"measurement": "MIC90", "setting": "Acinetobacter baumannii; [1]", "value": 2, "unit": "µg/mL"},
      {"measurement": "MIC range", "setting": "Klebsiella pneumoniae", "value": "2 to 32", "unit": "µg/mL"},
      {"measurement": "MIC50", "setting": "Klebsiella pneumoniae; [2]", "value": 4, "unit": "µg/mL"},
      {"measurement": "MIC90", "setting": "Klebsiella pneumoniae; [2]", "value": 16, "unit": "µg/mL"},
      {"measurement": "hemolysis at 4 h, 64 ug/mL", "setting": "in vitro", "value": 62.6, "unit": "%"},
      {"measurement": "IC50 from the haemolysis curve", "setting": "human erythrocytes", "value": 48.53, "unit": "µg/mL"},
      {"measurement": "log(CFU/mL) Mean", "setting": "P. aeruginosa ATCC 27853; 2xMIC (16 μg/mL), 0.00 h", "value": "5.52 log(CFU/mL)"},
      {"measurement": "log(CFU/mL) Mean", "setting": "P. aeruginosa ATCC 27853; 2xMIC (16 μg/mL), 0.17 h", "value": "4.48 log(CFU/mL)"},
      {"measurement": "log(CFU/mL) Mean", "setting": "P. aeruginosa ATCC 27853; 2xMIC (16 μg/mL), 0.50 h", "value": "3.75 log(CFU/mL)"},
      {"measurement": "log(CFU/mL) Mean", "setting": "P. aeruginosa ATCC 27853; 2xMIC (16 μg/mL), 1.00 h", "value": "2.97 log(CFU/mL)"},
      {"measurement": "log(CFU/mL) Mean", "setting": "P. aeruginosa ATCC 27853; 2xMIC (16 μg/mL), 2.00 h", "value": "0.88 log(CFU/mL)"},
      {"measurement": "log(CFU/mL) Mean", "setting": "P. aeruginosa ATCC 27853; 2xMIC (16 μg/mL), 4.00 h", "value": "0.00 log(CFU/mL)"},
      {"measurement": "log(CFU/mL) Mean", "setting": "P. aeruginosa ATCC 27853; 2xMIC (16 μg/mL), 8.00 h", "value": "0.00 log(CFU/mL)"},
      {"measurement": "log(CFU/mL) Mean", "setting": "P. aeruginosa ATCC 27853; 2xMIC (16 μg/mL), 24.00 h", "value": "0.00 log(CFU/mL)"},
      {"measurement": "log(CFU/mL) Mean", "setting": "P. aeruginosa ATCC 27853; 4xMIC (32 μg/mL), 0.00 h", "value": "5.52 log(CFU/mL)"},
      {"measurement": "log(CFU/mL) Mean", "setting": "P. aeruginosa ATCC 27853; 4xMIC (32 μg/mL), 0.17 h", "value": "4.32 log(CFU/mL)"},
      {"measurement": "log(CFU/mL) Mean", "setting": "P. aeruginosa ATCC 27853; 4xMIC (32 μg/mL), 0.50 h", "value": "3.46 log(CFU/mL)"},
      {"measurement": "log(CFU/mL) Mean", "setting": "P. aeruginosa ATCC 27853; 4xMIC (32 μg/mL), 1.00 h", "value": "1.23 log(CFU/mL)"},
      {"measurement": "log(CFU/mL) Mean", "setting": "P. aeruginosa ATCC 27853; 4xMIC (32 μg/mL), 2.00 h", "value": "0.57 log(CFU/mL)"},
      {"measurement": "log(CFU/mL) Mean", "setting": "P. aeruginosa ATCC 27853; 4xMIC (32 μg/mL), 4.00 h", "value": "0.00 log(CFU/mL)"},
      {"measurement": "log(CFU/mL) Mean", "setting": "P. aeruginosa ATCC 27853; 4xMIC (32 μg/mL), 8.00 h", "value": "0.00 log(CFU/mL)"},
      {"measurement": "log(CFU/mL) Mean", "setting": "P. aeruginosa ATCC 27853; 4xMIC (32 μg/mL), 24.00 h", "value": "0.00 log(CFU/mL)"},
      {"measurement": "log(CFU/mL) Mean", "setting": "P. aeruginosa ATCC 27853; 8xMIC (64 μg/mL), 0.00 h", "value": "5.52 log(CFU/mL)"},
      {"measurement": "log(CFU/mL) Mean", "setting": "P. aeruginosa ATCC 27853; 8xMIC (64 μg/mL), 0.17 h", "value": "4.14 log(CFU/mL)"},
      {"measurement": "log(CFU/mL) Mean", "setting": "P. aeruginosa ATCC 27853; 8xMIC (64 μg/mL), 0.50 h", "value": "1.43 log(CFU/mL)"},
      {"measurement": "log(CFU/mL) Mean", "setting": "P. aeruginosa ATCC 27853; 8xMIC (64 μg/mL), 1.00 h", "value": "0.00 log(CFU/mL)"},
      {"measurement": "log(CFU/mL) Mean", "setting": "P. aeruginosa ATCC 27853; 8xMIC (64 μg/mL), 2.00 h", "value": "0.00 log(CFU/mL)"},
      {"measurement": "log(CFU/mL) Mean", "setting": "P. aeruginosa ATCC 27853; 8xMIC (64 μg/mL), 4.00 h", "value": "0.00 log(CFU/mL)"},
      {"measurement": "log(CFU/mL) Mean", "setting": "P. aeruginosa ATCC 27853; 8xMIC (64 μg/mL), 8.00 h", "value": "0.00 log(CFU/mL)"},
      {"measurement": "log(CFU/mL) Mean", "setting": "P. aeruginosa ATCC 27853; 8xMIC (64 μg/mL), 24.00 h", "value": "0.00 log(CFU/mL)"},
      {"measurement": "log(CFU/mL) Mean", "setting": "P. aeruginosa ATCC 27853; MIC (8 μg/mL), 0.00 h", "value": "5.52 log(CFU/mL)"},
      {"measurement": "log(CFU/mL) Mean", "setting": "P. aeruginosa ATCC 27853; MIC (8 μg/mL), 0.17 h", "value": "4.81 log(CFU/mL)"},
      {"measurement": "log(CFU/mL) Mean", "setting": "P. aeruginosa ATCC 27853; MIC (8 μg/mL), 0.50 h", "value": "4.34 log(CFU/mL)"},
      {"measurement": "log(CFU/mL) Mean", "setting": "P. aeruginosa ATCC 27853; MIC (8 μg/mL), 1.00 h", "value": "3.67 log(CFU/mL)"},
      {"measurement": "log(CFU/mL) Mean", "setting": "P. aeruginosa ATCC 27853; MIC (8 μg/mL), 2.00 h", "value": "3.15 log(CFU/mL)"},
      {"measurement": "log(CFU/mL) Mean", "setting": "P. aeruginosa ATCC 27853; MIC (8 μg/mL), 4.00 h", "value": "2.63 log(CFU/mL)"},
      {"measurement": "log(CFU/mL) Mean", "setting": "P. aeruginosa ATCC 27853; MIC (8 μg/mL), 8.00 h", "value": "2.10 log(CFU/mL)"},
      {"measurement": "log(CFU/mL) Mean", "setting": "P. aeruginosa ATCC 27853; MIC (8 μg/mL), 24.00 h", "value": "5.08 log(CFU/mL)"},
      {"measurement": "bactericidal or bacteriostatic activity", "setting": "P. aeruginosa ATCC 27853; time-kill curves over 24 hours, MIC to 8xMIC", "value": "bactericidal effect"}
    ]}
  ]
}
